According to patent US11286299B2, “Peptides selective for Bcl-2 family proteins” (Massachusetts Institute of Technology, priority 2018, dated 2022):
Read-outs that look alike come from different tables or passages of the source. Blank lines part the entries; values can stand above or below the substance they belong to.

Columns and labels:
Mcl-1 [1] = target: T1, Mcl-1 (Homo sapiens, UniProt Q07820); assay: Competition fluorescence polarization (anisotropy) binding assay; set-up: Mcl-1 residues 172-327; made in house; host or cells: E. coli
Experimental: (§1) Fluorescence polarization competition binding assay Competition fluorescence polarization experiments were performed as described by Jenson et al. […]. Experiments were performed in triplicate, using the same protein and peptide preparations, and data were fit as described by Foight et al. (20) to a complete competitive binding model (47).

Bcl-xL [2] = target: T2, Bcl-xL (Homo sapiens, UniProt Q07817); details: cited from earlier work; for Ki: Table X3, previously reported selective peptides, read-out: reported affinity, Bcl-xL
Mcl-1 [3] = target: T1, Mcl-1; details: cited from earlier work; for Ki: Table X3, previously reported selective peptides, read-out: reported affinity, Mcl-1
Bfl-1 [4] = target: T3, Bfl-1 (Homo sapiens, UniProt Q16548); details: cited from earlier work
T3 sequence (Q16548 1-151): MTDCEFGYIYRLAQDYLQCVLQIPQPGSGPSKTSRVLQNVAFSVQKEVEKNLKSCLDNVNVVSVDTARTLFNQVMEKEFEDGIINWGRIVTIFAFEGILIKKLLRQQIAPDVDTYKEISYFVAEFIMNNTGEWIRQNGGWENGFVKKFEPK

Bfl-1 [5] = target: T3, Bfl-1; assay: Competition fluorescence polarization (anisotropy) binding assay; set-up: Bfl-1 residues 1-151; made in house; host or cells: E. coli
Experimental: as §1

Bcl-xL [6] = target: T2, Bcl-xL; assay: as above; set-up: human Bcl-xL residues 1-209; made in house; host or cells: E. coli
Experimental: as §1

Bfl-1 [7] = target: T3, Bfl-1; assay: Yeast cell-surface display binding (FACS titration); set-up: Bfl-1 residues 1-151; made in house; host or cells: E. coli; details: for binding to Bfl-1 in yeast display: SORTCERY designs; for reported affinity, Bfl-1: Table X3, this study, Bfl-1 specific peptides, cell-surface measurement, highest concentration tested 1000 nM
Description: Protein constructs Anti-apoptotic protein constructs used in this work correspond to human Bcl-xL residues 1-209, Mcl-1 residues 172-327 and Bfl-1 residues 1-151, expressed in E. coli and purified as described by Dutta et al. (45).
Cells were filtered and washed 2× in chilled BSS before resuspending the labeled cells in BSS and using a BD FACSAria flow cytometer or a BD FACSCanto and FACSDiva software for cell sorting or analysis.
Crystals were flash frozen in liquid nitrogen.

[8] = tested on: B-ALL cell lines with engineered dependencies on human anti-apoptotic genes (Bfl-1, Mcl-1, Bcl-xL, Bcl-2); assay: Cellular BH3 profiling assay (mitochondrial depolarization, JC-1, permeabilized cells); type: cell-based, murine; details: for pro-apoptotic response in dependent cell lines: permeabilized cells, Bfl-1 vs Mcl-1 or Bcl-xL dependent cell lines
Experimental: Cell Culture We used murine p185+ Arf^−/^− B-ALL suspension cell lines with engineered dependencies on the human anti-apoptotic genes (Bfl-1, Mcl-1, Bcl-xL), along with an apoptosis-resistant (Bax^−/−/Bak^−/−) control(51). Cells were grown in Roswell Park Memorial Institute (RPMI) 1640 medium supplemented with 10% (v/v) fetal bovine serum, 2 mM L-glutamine, 100 U/mL penicillin, […] streptomycin, 0.1 mM minimal essential medium nonessential amino acids, 25 mM HEPES and […] β-mercaptoethanol. Cell line authentication was performed by short tandem repeat (STR) analysis. Cell were monitored for mycoplasma contamination using the MycoAlert® Mycoplasma Detection Kit (Lonza, Rockland, Mass., USA).
(§2) Cellular BH3 profiling assay BH3 profiling was adapted from the protocol of Ryan and Letai (32). Peptides were diluted at the desired concentrations in MEB buffer (150 mM Mannitol, 10 mM HEPES-KOH pH 7.5, 50 mM KCl, 0.02 mM EGTA, 0.02 mM EDTA, 0.1% BSA and 5 mM succinate) containing […] oligomycin, […] digitonin, […] and 10 mM 2-mercaptoethanol in 384-well plates. […] Fluorescence emission was measured every 5 min for 3 hr at […] with 525 nm excitation on a Tecan Spark 10M. To produce percent depolarization, the area under the resulting curve was calculated and normalized to the assay controls. […]
as §2, with “Peptides” for “Cellular BH3 profiling assay BH3 profiling was adapted from the protocol of Ryan and Letai (32). Peptides”, “titrated by serial dilution” for “diluted at the desired concentrations”, “HEPES-KOH,” for “HEPES-KOH”, “Succinate)” for “succinate)”, “h” for “hr”
As depicted in FIGS. 7-11, permeabilized cells were contacted with increasing doses of BH3 peptides, ad mitochondria outer membrane permeabilization (MOMP) was monitored using a voltage-sensitive dye (JC-1). […]

[9] = Table X2, 50 nM protein, 25 nM fluoresceinated Bim BH3, SD of three replicates, read-out: Ki, Mcl-1
[10] = fluoresceinated Bim BH3 competitor, as reported by Dutta et al. 2013
[11] = Table X3, this study, same values as Table X2, read-out: reported affinity, Mcl-1
[12] = Table X2, 50 nM protein, 25 nM fluoresceinated Bim BH3, SD of three replicates, read-out: Ki, Bfl-1
[13] = Table X3, this study, same values as Table X2, read-out: reported affinity, Bfl-1
[14] = Table X2, 50 nM protein, 25 nM fluoresceinated Bim BH3, SD of three replicates, read-out: Ki, Bcl-xL
[15] = Table X3, this study, same values as Table X2, read-out: reported affinity, Bcl-xL

T1 sequence (Q07820 172-327): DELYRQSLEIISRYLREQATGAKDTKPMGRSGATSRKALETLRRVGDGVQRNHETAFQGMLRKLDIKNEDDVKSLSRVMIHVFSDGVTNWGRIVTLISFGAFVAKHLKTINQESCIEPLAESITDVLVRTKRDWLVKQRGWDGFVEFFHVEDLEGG
T2 sequence (Q07817 1-209): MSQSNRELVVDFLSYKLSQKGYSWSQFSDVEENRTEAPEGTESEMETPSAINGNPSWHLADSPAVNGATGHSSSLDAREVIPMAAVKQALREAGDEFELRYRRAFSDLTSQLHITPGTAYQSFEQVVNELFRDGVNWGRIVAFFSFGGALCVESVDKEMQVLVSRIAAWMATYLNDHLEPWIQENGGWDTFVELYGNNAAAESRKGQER

- Ki (Mcl-1 [1]; [9]): > 4 µM
Substance: Ac-QRIIWIAAELRRAADELDKQIER-NH2 [srt.XF02]

- Ki (Mcl-1 [1]; [9]): > 4 µM
- Ki (Mcl-1 [1]; [11]): > 4 µM
- Ki (Bfl-1 [5]; [12]): > 4 µM
- Ki (Bfl-1 [5]; [13]): > 4 µM
- Ki (Bcl-xL [6]; [14]): 0.00132 ± 0.00018 µM
Substance: Ac-QTLIWYGASLRRYADEFAKQRER-NH2 [srt.X1]

- Ki (Mcl-1 [1]; [9]): 0.0006 ± 0.0003 µM
- Ki (Bfl-1 [5]; [12]): > 4 µM
- Ki (Bfl-1 [5]; [13]): > 4 µM
- Ki (Bcl-xL [6]; [14]): > 4 µM
- Ki (Bcl-xL [6]; [15]): > 4 µM
Substance: Ac-RSQYEVIQELIRIGDIVLAYFER-NH2 [srt.M9]

- Ki (Bfl-1 [5]; [12]): > 4 µM
Substance: Ac-QWLRWVIAELIRIADEFHAQYER-NH2 [srt.MX01]

- Ki (Mcl-1 [1]; [9]): > 4 µM
- Ki (Mcl-1 [1]; [11]): > 4 µM
- Ki (Bfl-1 [5]; [12]): > 4 µM
- Ki (Bfl-1 [5]; [13]): > 4 µM
- Ki (Bcl-xL [6]; [14]): 0.0037 ± 0.0003 µM
Substance: Ac-QPLIWFGAQLRRGADEFAAQRER-NH2 [srt.X7]

- Ki (Bcl-xL [6]; [14]): > 4 µM
Substance: Ac-RRVDEIAQILRRIGDNVTTYIER-NH2 [srt.MF06]

- Ki (Bfl-1 [5]; [12]): > 4 µM
- Ki (Bfl-1 [5]; [13]): > 4 µM
- Ki (Bcl-xL [6]; [14]): > 4 µM
- Ki (Bcl-xL [6]; [15]): > 4 µM
Substance: Ac-RSELEVVQELVRIGDIVVAYFER-NH2 [srt.M1]

- binding to Bfl-1 in the FP competition assay (Bfl-1 [5]): undetectably
- reported affinity, Bfl-1 (Bfl-1 [7]): 14 ± 2 nM
Substance: Ac-QRVVHIAAGLRRTGDQLEAYGER-NH2 [srt.F4]
- binding to Bfl-1 in yeast display (Bfl-1 [7]): bound Bfl-1 with high affinity in yeast display
- pro-apoptotic response in dependent cell lines [8]: selectively induced a pro-apoptotic response in Bfl-1 dependent cell lines, but not in Mcl-1 or Bcl-xL dependent cell lines

More lines, now with the values behind:

Substance: Ac-QRIIWIAAELRRAADQLDAQIER-NH2 [srt.XF03]
- Ki (Mcl-1 [1]; [9]): > 4 µM

Substance: (fl)IWIAQELRRIGDEFNAYY [Fluoresceinated Bim]
- Kd (Bcl-xL [2]; [10]): 0.006 ± 0.001 µM
- Kd (Mcl-1 [3]; fluoresceinated Bim BH3 competitor, as reported by Dutta et al. 2013, read-out: Kd, Mcl-1): 0.0008 ± 0.0004 µM
- Kd (Bfl-1 [4]; [10]): 0.004 ± 0.001 µM

Substance: Ac-RRVVQIAAGLRRAGDQLEKYGER-NH2 [srt.F10]
- binding to Bfl-1 in the FP competition assay (Bfl-1 [5]): weakly
- binding to Bfl-1 in yeast display (Bfl-1 [7]): bound Bfl-1 with high affinity in yeast display
- reported affinity, Bfl-1 (Bfl-1 [7]): 3.2 ± 0.4 nM
- inhibition of Bfl-1 in the cellular assay relative to peptide FS1 [8]: at least as potently as a previously described peptide
- pro-apoptotic response in dependent cell lines [8]: selectively induced a pro-apoptotic response in Bfl-1 dependent cell lines, but not in Mcl-1 or Bcl-xL dependent cell lines

Substance: QWVREIAAGLRLAADNVNAQLER [FS1]
- Ki (Bcl-xL [2]): 2.4 ± 0.4 µM
- Ki (Mcl-1 [3]): > 5 µM
- Ki (Bfl-1 [4]; previously described peptide (ref 25), read-out: Ki for Bfl-1): 0.015 µM

Substance: Ac-QWLRDVVAELARIADEFHAQYER-NH2 [srt.MX05]
- Ki (Bfl-1 [5]; [12]): > 4 µM

Substance: QWVREIAAGLRRAADDVNAQVER [FS2]
- Ki (Bcl-xL [2]): > 5 µM
- Ki (Mcl-1 [3]): 3.2 ± 0.3 µM
- Kd (Mcl-1 [3]; read-out: Kd for Mcl-1): > 3 µM
- Ki (Bfl-1 [4]; Table X3, previously reported selective peptides, read-out: reported affinity, Bfl-1): 0.021 ± 0.006 µM
